Results published in US11285167B2, “Synergistic nutritional neuroprotective compositions for ameliorating neural dysfunction” (CELAGENEX RESEARCH (INDIA) PVT. LTD., priority 2019, dated 2022).

Assays:
[1] = test system: Major depression disorder in Wistar rats; assay: Forced swim test in Reserpine-induced major depression disorder; type: in vivo; settings: forced swim test 5 min, Reserpine 1.0 mg/kg induced, oral daily 7 days, mean ± SEM, n = 6
[2] = test system: Major depression disorder in Wistar rats; assay: Open field test (ambulatory behavior) in Reserpine-induced major depression disorder; type: in vivo; settings: 6 minute session, Reserpine induced, oral daily 7 days, mean ± SEM, n = 6

CN(C)CCC[C@@]1(c2ccc(F)cc2)OCc2cc(C#N)ccc21 [Escitalopram, reference compound]
Climbing [1]: 20.17 ± 0.87 | Immobility [1]: 91.67 ± 0.80 | Total time spent in active swimming [1]: 208.33 ± 0.80 s | No. of open arm entries (Open field test) [2]: 47.83 ± 0.60
